Article PMC8113213, “Physiologically based kinetic modelling based prediction of in vivo rat and human acetylcholinesterase (AChE) inhibition upon exposure to diazinon” (Archives of Toxicology, 2021)
pIC50: −log10 of the molar value. Like-named read-outs stand apart in the source and are kept apart here.

What was measured:
[1] = human; ref Garfitt et al. 2002; Poet et al. 2004; cited from earlier work
[2] = rat; ref Poet et al. 2004; cited from earlier work
[3] = Unbound fraction in the in vitro medium by rapid equilibrium dialysis (RED); format: in vitro ADME
Experimental: To assess whether this assumption is reasonable, the fuDZOin vitro was determined. This was done using rapid equilibrium dialysis (RED) performed in line with the manufacturer’s protocol (Thermo Fisher Scientific [2012]). […] The whole device was then incubated for 5 h at 37℃ on a shaker at 250 rmp to reach equilibrium. Then 50 µl of post-incubation sample were separately collected from the sample and buffer chambers into the corresponding Eppendorf tubes. After this 50 µl of PBS buffer was added to the sample taken from the sample chamber and 50 µl of in vitro medium was added to the sample taken from buffer chamber and subsequently 300 µl ice-cold 90% acetonitrile (ACN/water, v/v) were added to both samples to precipitate the protein. All samples were put on ice for 30 min, followed by centrifugation for 30 min at 15,000g. The supernatants were collected for LC–MS/MS analysis of the amount of DZO.

PON1 [4] = target: T1, PON1 (Homo sapiens, UniProt P27169); assay: in vitro; format: in vitro ADME; conditions: for Km: pH 7.4
T1 construct: 1 µl of human or rat liver microsomes (final concentration 0.1 mg microsomal protein/ml); tissue Corning; host or cells: human liver microsomes, pooled from 20 donors
Experimental: (§1) Preliminary studies were carried to optimize and select the incubation conditions with respect to linearity for both incubation time and microsomal/plasma protein concentration (data not shown). […] After 1 min preincubation in a 37 °C water bath, 1 µl of human or rat liver microsomes (final concentration 0.1 mg microsomal protein/ml), or 1 µl of human or rat plasma (final concentration 0.385 mg plasma protein/ml for human plasma and 0.300 mg plasma protein/ml for rat plasma) was added to initiate the reaction. The total incubation mixture was 200 µl. Control incubations were carried out by replacing liver microsomes or plasma with buffer. The reaction was terminated after 1 min incubation (human samples) or 2 min incubation (rat samples) by adding 200 µl ice-cold ACN. Subsequently, samples were centrifuged at 16000 g (4℃) for 5 min, and supernatants were further diluted (30 × for liver sample and 40 × for plasma sample) in a mixture of ACN and 50 mM Tris–HCl (pH 7.4) (ratio 1:1, v/v) before analysis by LC–MS/MS for quantification of metabolite formation.
(§2) The chromatographic separations were conducted on a Kinetex® 1.7 µm Phenyl-Hexyl 100 Å LC column (100 × 2.1 mm). The injection volume was 1 µl at a flow rate of 0.3 ml/min. The temperature of the column was kept at 40℃. The mobile phase A consisted of ultrapure water with 0.1% (v/v) formic acid, and mobile phase B consisted of acetonitrile (ACN) with 0.1% (v/v) formic acid. […] The instrument was used in positive mode with multiple reaction monitoring (MRM). The optimized acquisition parameters for DZN, DZO and the metabolite IMHP are listed in Supplementary data I.
(§3) The calculation was done using GraphPad Prism 5 for Windows, version 5.04 (GraphPad software, San Diego California USA).

rat RBC AChE = target: T2, rat RBC AChE (Rattus norvegicus, UniProt P37136); assay: In vitro AChE inhibition assay (Ellman) with extracted rat RBC AChE; format: biochemical; conditions: rat; IC50 DZO/IC50 DZN, TEF of DZO set at 1.0
T2 construct: the membrane fraction (containing AChE) was sedimented by centrifugation at 20,000g for 40 min; tissue BioIVT; host or cells: rat red blood cell membranes (from whole blood)
Experimental: (§4) However, since recombinant rat AChE was not commercially available, extracted rat RBC AChE was used. […] The concentration of DTNB was calculated based on the concentration ratio (ATC/DTNB) of 2 (Stern et al. [2014]). […] To initiate the inhibition reaction, 1 µl rhAChE or rat AChE (final concentration 0.6 mU/ml) was added to the incubation. The total incubation volume was 50 µl. After 15 min incubation at 37℃, 150 µl reaction reagents (mixture of ATC at a final concentration of 150 µM and DTNB at a final concentration of 75 µM) were added into each well. The final total volume of each well was 200 µl. Subsequently, the 96-well plate was measured continuously for 10 min at absorbance 412 nm at 37℃ to quantify the remaining AChE activity.
(§5) The rhAChE and rat AChE activity were expressed as the remaining AChE activity relative to solvent control (100% activity) and positive control (0% activity) based on Eq. (2):2 AChEactivity\%=A412t10-t0testcompound-A412t10-t0positivecontrol/A412t10-t0solventcontrol-A412t10-t0positivecontrol×100\% , where the A412(t10 − t0)test compound is the change in the absorbance at A412 nm between 0 and 10 min for the test compound, the A412(t10 − t0)positive control is the change in the absorbance at A412 nm between 0 and 10 min for the CPO sample, and the A412(t10 − t0)solvent control is the change in the absorbance at A412nm between 0 and 10 min for the 0.2% ethanol sample.

[5] = target: T3, recombinant human AChE (rhAChE) (Homo sapiens, UniProt P22303); assay: biochemical
T3 construct: purchased Sigma-Aldrich Co
Experimental: as §4, §5

PON1 [6] = target: T4, PON1 (Rattus norvegicus, UniProt P55159); assay: in vitro; format: in vitro ADME; parameters: 1 µl of human or rat liver microsomes (final concentration 0.1 mg microsomal protein/ml); tissue Corning; host or cells: rat liver microsomes (Sprague–Dawley, male); conditions: for Km: pH 7.4
Experimental: as §1, §2, §3

PON1 [7] = target: T4, PON1; conditions: ref Makhaeva et al. 2009; cited from earlier work

T1 sequence (P27169 whole entry): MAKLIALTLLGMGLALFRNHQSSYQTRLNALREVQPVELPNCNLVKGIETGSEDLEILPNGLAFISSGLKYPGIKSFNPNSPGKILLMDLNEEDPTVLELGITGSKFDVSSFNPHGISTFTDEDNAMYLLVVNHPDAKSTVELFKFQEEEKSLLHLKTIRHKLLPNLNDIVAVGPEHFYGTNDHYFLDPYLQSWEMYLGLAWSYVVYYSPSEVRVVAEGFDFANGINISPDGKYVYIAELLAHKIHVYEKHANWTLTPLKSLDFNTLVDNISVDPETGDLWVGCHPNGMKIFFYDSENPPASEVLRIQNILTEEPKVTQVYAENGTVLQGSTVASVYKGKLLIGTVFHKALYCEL
T4 sequence (P55159 whole entry): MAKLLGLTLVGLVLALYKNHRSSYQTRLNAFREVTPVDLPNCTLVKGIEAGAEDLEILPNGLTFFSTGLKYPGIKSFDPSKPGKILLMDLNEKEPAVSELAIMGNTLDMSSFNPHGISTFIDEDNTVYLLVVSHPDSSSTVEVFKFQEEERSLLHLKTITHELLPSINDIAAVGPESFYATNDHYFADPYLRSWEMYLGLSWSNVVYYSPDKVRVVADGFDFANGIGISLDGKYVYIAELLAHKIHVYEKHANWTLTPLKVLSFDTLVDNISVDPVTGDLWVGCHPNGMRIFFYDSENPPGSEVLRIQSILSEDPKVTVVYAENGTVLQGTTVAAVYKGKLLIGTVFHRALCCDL
T3 sequence (P22303 32-614): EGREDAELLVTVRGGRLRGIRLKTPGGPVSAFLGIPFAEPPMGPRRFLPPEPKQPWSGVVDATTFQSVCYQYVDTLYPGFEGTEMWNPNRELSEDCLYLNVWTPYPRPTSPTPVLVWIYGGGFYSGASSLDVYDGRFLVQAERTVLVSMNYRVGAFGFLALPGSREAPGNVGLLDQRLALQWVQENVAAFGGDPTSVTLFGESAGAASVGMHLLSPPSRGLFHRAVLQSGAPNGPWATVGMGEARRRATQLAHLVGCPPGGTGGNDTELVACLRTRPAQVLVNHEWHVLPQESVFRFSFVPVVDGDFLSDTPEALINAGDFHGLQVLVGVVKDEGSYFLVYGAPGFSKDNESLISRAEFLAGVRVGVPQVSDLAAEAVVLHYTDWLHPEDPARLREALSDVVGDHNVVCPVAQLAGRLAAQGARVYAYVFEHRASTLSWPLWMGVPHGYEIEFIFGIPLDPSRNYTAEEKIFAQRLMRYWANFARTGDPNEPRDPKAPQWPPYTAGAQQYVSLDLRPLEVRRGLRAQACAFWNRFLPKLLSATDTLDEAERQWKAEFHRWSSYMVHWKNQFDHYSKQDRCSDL
T2 sequence (P37136 other isoform, or with tags, fused parts or gaps): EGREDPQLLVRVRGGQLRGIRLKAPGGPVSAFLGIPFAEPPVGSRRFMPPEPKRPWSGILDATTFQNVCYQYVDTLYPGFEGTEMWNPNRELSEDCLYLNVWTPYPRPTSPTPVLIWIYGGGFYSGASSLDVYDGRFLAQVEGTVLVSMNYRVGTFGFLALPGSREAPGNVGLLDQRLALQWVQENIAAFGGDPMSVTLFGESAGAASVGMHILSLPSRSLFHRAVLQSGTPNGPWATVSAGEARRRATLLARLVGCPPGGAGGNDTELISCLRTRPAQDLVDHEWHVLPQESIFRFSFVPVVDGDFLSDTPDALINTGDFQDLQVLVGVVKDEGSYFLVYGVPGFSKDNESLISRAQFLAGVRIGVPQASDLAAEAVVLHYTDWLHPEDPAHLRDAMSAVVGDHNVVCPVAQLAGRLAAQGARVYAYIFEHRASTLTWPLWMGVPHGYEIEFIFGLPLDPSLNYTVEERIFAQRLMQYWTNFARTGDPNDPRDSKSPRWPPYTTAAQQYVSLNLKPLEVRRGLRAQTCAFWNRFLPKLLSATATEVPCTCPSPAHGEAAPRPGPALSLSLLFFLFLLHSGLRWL

For `CCOP(=O)(O)OCC` [DEP, diethylphosphate], which “Ke, elimination into the urine” value [1] is on record?
Its value is 12 h⁻¹.

What about the “Ke, elimination into the urine” value [2] of the same molecule?
Its value is 0.29 h⁻¹.

With `CCOP(O)(=S)OCC` [DETP, diethylthiophosphate] as the molecule, how does the “Ke, elimination into the urine” value [1] read?
The value was 12 h⁻¹.

And the “Ke, elimination into the urine” value [2]?
The value was 0.29 h⁻¹.

For `CCOP(=O)(OCC)Oc1cc(C)nc(C(C)C)n1` [DZO, Diazoxon], which recovery at 5 h, 0.05 µM ([3]; in vitro medium in a RED insert device, read-out: recovery rate of post-dialysis in the in vitro medium) is on record?
The recovery at 5 h, 0.05 µM was 74%.

And the fraction unbound at 5 h, 0.05 µM ([3]; in vitro medium with 0.1 mg/ml BSA, read-out: unbound fraction in the in vitro medium (fu in vitro))?
The fraction unbound at 5 h, 0.05 µM was 0.96.

What about the “Vmax DZO to IMHP, plasma” value (PON1 [4]) of the same molecule?
The value was 124.000 nmol/min/mg plasma protein.

What about the “Vmax DZO to IMHP, liver” value (PON1 [4]; human liver microsomes) of the same molecule?
Its value is 53.490 nmol/min/mg microsomal protein.

What about the Km (PON1 [4]; human liver microsomes) of the same molecule?
The Km was 557 µM.

And the Km (PON1 [4]; human plasma)?
The Km was 701 µM.

What about the “toxic equivalency factor (TEF)” value (rat RBC AChE) of the same molecule?
Its value is 1.0.

And the “toxic equivalency factor (TEF)” value ([5]; human, IC50 DZO/IC50 DZN, TEF of DZO set at 1.0)?
Its value is 1.0.

And the pIC50 ([5]; rhAChE, 15 min incubation at 37℃, read-out: IC50 for inhibition of AChE activity)?
The pIC50 was 7.36.

And the Km (PON1 [6]; rat liver microsomes)?
Its Km is 668 µM.

And the Km (PON1 [6]; rat plasma)?
The Km was 536 µM.

What about the “Vmax DZO to IMHP, liver” value (PON1 [6]; rat liver microsomes) of the same molecule?
The value was 691.100 nmol/min/mg microsomal protein.

And the “Vmax DZO to IMHP, plasma” value (PON1 [6]; rat plasma)?
Its value is 431.400 nmol/min/mg plasma protein.

What about the “PON1-mediated conversion of DZO faster in rat liver than in human liver” value (PON1 [6]; rat versus human liver) of the same molecule?
Its value is 10.7 fold.

What about the “higher Vmax of PON1-mediated conversion in rat liver” value (PON1 [6]; rat versus human liver) of the same molecule?
The value was 12.9 fold.

And the “PON1-mediated conversion of DZO faster in rat plasma than in human plasma” value (PON1 [6]; rat versus human plasma)?
The value was 4.5 fold.

What about the “higher Vmax of PON1-mediated conversion in rat plasma” value (PON1 [6]; rat versus human plasma) of the same molecule?
Its value is 3.5 fold.

With `Cc1cc(=O)nc(C(C)C)[nH]1` [IMHP, 2-isopropyl-4-methyl-6-hydroxypyrimidine] as the molecule, how does the “Ke, elimination into the urine” value [1] read?
The value was 12 h⁻¹.

And the “Ke, elimination into the urine” value [2]?
The value was 0.29 h⁻¹.

For `CCOP(=O)(OCC)Oc1ccc([N+](=O)[O-])cc1` [paraoxon], which “faster PON1-mediated hydrolysis by rat than human plasma samples” value (PON1 [7]) is on record?
The value was “approximately 4 fold”.
